Laboratory results published in US10590128B2, “6,7,8,9-tetrahydro-5H-pyrido[2,3-d]azepine dopamine D3 ligands” (Pfizer Inc., priority 2016, dated 2020).

What was measured:
[1] = biological target: human dopamine D2 receptor (hD2R) (Homo sapiens, UniProt P14416); assay: Human D2 receptor binding assay ([^3H]-Spiperone); details: CHO cells expressing hD2R, geometric mean of 2-5 determinations unless marked b (single determination)
[2] = biological target: human dopamine D3 receptor (hD3R) (Homo sapiens, UniProt P35462); assay: Human D3 receptor binding assay ([^3H]-7-OH-DPAT); details: CHO cells expressing hD3R, geometric mean of 2-5 determinations unless marked b (single determination), read-out: hD3 in CHO cells Ki
Sequence of human dopamine D3 receptor (hD3R) (P35462 whole entry): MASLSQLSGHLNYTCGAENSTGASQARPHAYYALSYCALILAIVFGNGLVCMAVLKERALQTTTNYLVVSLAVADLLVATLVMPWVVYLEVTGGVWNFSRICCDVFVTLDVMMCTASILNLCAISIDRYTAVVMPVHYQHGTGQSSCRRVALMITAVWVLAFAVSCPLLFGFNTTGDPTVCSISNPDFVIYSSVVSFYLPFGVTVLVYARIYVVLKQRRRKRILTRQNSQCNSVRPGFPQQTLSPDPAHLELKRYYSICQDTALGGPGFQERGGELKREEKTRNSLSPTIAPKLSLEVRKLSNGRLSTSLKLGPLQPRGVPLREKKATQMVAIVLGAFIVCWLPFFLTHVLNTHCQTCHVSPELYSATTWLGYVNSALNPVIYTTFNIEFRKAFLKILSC

Sequence of human dopamine D2 receptor (hD2R) (P14416 whole entry): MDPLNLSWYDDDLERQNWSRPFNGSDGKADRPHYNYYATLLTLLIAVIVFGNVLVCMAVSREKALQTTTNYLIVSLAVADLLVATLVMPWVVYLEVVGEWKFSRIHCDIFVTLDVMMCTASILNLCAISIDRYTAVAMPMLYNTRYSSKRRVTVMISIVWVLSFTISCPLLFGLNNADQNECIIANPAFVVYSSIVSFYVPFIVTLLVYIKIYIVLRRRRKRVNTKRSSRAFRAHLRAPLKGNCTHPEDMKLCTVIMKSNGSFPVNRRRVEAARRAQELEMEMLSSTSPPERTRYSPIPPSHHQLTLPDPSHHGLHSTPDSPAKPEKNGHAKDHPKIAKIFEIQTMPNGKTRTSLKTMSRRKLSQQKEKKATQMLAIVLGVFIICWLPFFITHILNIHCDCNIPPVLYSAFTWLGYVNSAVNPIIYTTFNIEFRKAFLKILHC

| SMILES | Ki [1] | Ki [2] |
| --- | --- | --- |
| CCN1CCc2cc(NS(=O)(=O)c3ccc4c(c3)CCCO4)c(OC)nc2CC1 [Example 58, N-(7-ethyl-2-methoxy-6,7,8,9-tetrahydro-5H-pyrido[2,3-d]azepin-3-yl)-3,4-dihydro-2H-chromene-6-sulfonamide] | 0.76 µM | 0.0044 µM |
| CCN1CCc2cc(NS(=O)(=O)c3ccc(OC(F)F)cc3)c(OC)nc2CC1 [Example 59, 4-(difluoromethoxy)-N-(7-ethyl-2-methoxy-6,7,8,9-tetrahydro-5H-pyrido[2,3-d]azepin-3-yl)benzenesulfonamide] | 2.31 µM | 0.0116 µM |
| CCN1CCc2cc(NS(=O)(=O)c3ccc(Oc4ccccc4)nc3)c(OC)nc2CC1 [Example 60, N-(7-ethyl-2-methoxy-6,7,8,9-tetrahydro-5H-pyrido[2,3-d]azepin-3-yl)-6-phenoxypyridine-3-sulfonamide] | 0.395 µM | 0.00294 µM |
| CCN1CCc2cc(NS(=O)(=O)c3ccc(C)c(C)c3)c(OC)nc2CC1 [Example 61, N-(7-ethyl-2-methoxy-6,7,8,9-tetrahydro-5H-pyrido[2,3-d]azepin-3-yl)-3,4-dimethylbenzenesulfonamide] | 0.388 µM | 0.00233 µM |
| CCCc1ccc(S(=O)(=O)Nc2cc3c(nc2OC)CCN(CC)CC3)cc1 [Example 62, N-(7-ethyl-2-methoxy-6,7,8,9-tetrahydro-5H-pyrido[2,3-d]azepin-3-yl)-4-propylbenzenesulfonamide] | 0.0528 µM | 0.0004 µM |
| CCN1CCc2cc(NS(=O)(=O)c3ccc(OC4CCCC4)cc3)c(OC)nc2CC1 [Example 63, 4-(cyclopentyloxy)-N-(7-ethyl-2-methoxy-6,7,8,9-tetrahydro-5H-pyrido[2,3-d]azepin-3-yl)benzenesulfonamide] | 0.0114 µM | 0.00032 µM |
| CCN1CCc2cc(NS(=O)(=O)c3ccc4c(c3)CCC(C)(C)O4)c(OC)nc2CC1 [Example 64, N-(7-ethyl-2-methoxy-6,7,8,9-tetrahydro-5H-pyrido[2,3-d]azepin-3-yl)-2,2-dimethyl-3,4-dihydro-2H-chromene-6-sulfonamide] | 0.0212 µM | 0.00048 µM |
| CCN1CCc2cc(NS(=O)(=O)c3ccc(C)cc3C)c(OC)nc2CC1 [Example 65, N-(7-ethyl-2-methoxy-6,7,8,9-tetrahydro-5H-pyrido[2,3-d]azepin-3-yl)-2,4-dimethylbenzenesulfonamide] | 0.276 µM | 0.00154 µM |
| CCN1CCc2cc(NS(=O)(=O)c3ccc4c(c3)CCCO4)c(OC(C)C)nc2CC1 [Example 66, N-[7-ethyl-2-(propan-2-yloxy)-6,7,8,9-tetrahydro-5H-pyrido[2,3-d]azepin-3-yl]-3,4-dihydro-2H-chromene-6-sulfonamide] | 1.46 µM | 0.00878 µM |
| CCN1CCc2cc(NS(=O)(=O)c3ccc4c(c3)CC(C)O4)c(OC)nc2CC1 (centres unmarked) [Example 67, N-(7-ethyl-2-methoxy-6,7,8,9-tetrahydro-5H-pyrido[2,3-d]azepin-3-yl)-2-methyl-2,3-dihydro-1-benzofuran-5-sulfonamide] | 0.66 µM | 0.00402 µM |
| CCN1CCc2cc(NS(=O)(=O)c3ccc([C@H]4C[C@H](OC)C4)cc3)c(OC)nc2CC1 [Example 68, N-(7-ethyl-2-methoxy-6,7,8,9-tetrahydro-5H-pyrido[2,3-d]azepin-3-yl)-4-(trans-3-methoxycyclobutyl)benzenesulfonamide] | 0.338 µM | 0.00126 µM |
| CCN1CCc2cc(NS(=O)(=O)c3ccc(C4(C)CCOCC4)cc3)c(OC)nc2CC1 [Example 69, N-(7-ethyl-2-methoxy-6,7,8,9-tetrahydro-5H-pyrido[2,3-d]azepin-3-yl)-4-(4-methyltetrahydro-2H-pyran-4-yl)benzenesulfonamide] | 0.392 µM | 0.00477 µM |
| CCN1CCc2cc(NS(=O)(=O)c3ccc(C4CCOC4)cc3)c(OC)nc2CC1 (centres unmarked) [Example 71, N-(7-ethyl-2-methoxy-6,7,8,9-tetrahydro-5H-pyrido[2,3-d]azepin-3-yl)-4-(tetrahydrofuran-3-yl)benzenesulfonamide] | 0.754 µM | 0.00484 µM |
| CCN1CCc2cc(NS(=O)(=O)c3ccc([C@H]4C[C@@H](OC)C4)cc3)c(OC)nc2CC1 [Example 72, N-(7-ethyl-2-methoxy-6,7,8,9-tetrahydro-5H-pyrido[2,3-d]azepin-3-yl)-4-(cis-3-methoxycyclobutyl)benzenesulfonamide] | 0.42 µM | 0.00265 µM |
| CCN1CCc2cc(NS(=O)(=O)c3ccc(C4(F)CCOCC4)cc3)c(OC)nc2CC1 [Example 75, N-(7-ethyl-2-methoxy-6,7,8,9-tetrahydro-5H-pyrido[2,3-d]azepin-3-yl)-4-(4-fluorotetrahydro-2H-pyran-4-yl)benzenesulfonamide] | 0.262 µM | 0.0032 µM |
| COc1nc2c(cc1NS(=O)(=O)c1ccc([C@H]3C[C@H](OC)C3)cc1)CCN(C)CC2 [Example 76, 4-(trans-3-methoxycyclobutyl)-N-(2-methoxy-7-methyl-6,7,8,9-tetrahydro-5H-pyrido[2,3-d]azepin-3-yl)benzenesulfonamide] | 0.203 µM | 0.00128 µM |

| SMILES | Ki [1] | Ki [2] |
| --- | --- | --- |
| COc1nc2c(cc1NS(=O)(=O)c1ccc(OC3CCOCC3)cc1)CCN(C)CC2 [Example 78, N-(2-methoxy-7-methyl-6,7,8,9-tetrahydro-5H-pyrido[2,3-d]azepin-3-yl)-4-(tetrahydro-2H-pyran-4-yloxy)benzenesulfonamide] | 0.718 µM | 0.00756 µM |
| COc1nc2c(cc1NS(=O)(=O)c1ccc(C3(C)CCOCC3)cc1)CCN(C)CC2 [Example 79, N-(2-methoxy-7-methyl-6,7,8,9-tetrahydro-5H-pyrido[2,3-d]azepin-3-yl)-4-(4-methyltetrahydro-2H-pyran-4-yl)benzenesulfonamide] | 0.403 µM | 0.00367 µM |
| COc1nc2c(cc1NS(=O)(=O)c1ccc(C3(F)CCOCC3)cc1)CCN(C)CC2 [Example 80, 4-(4-fluorotetrahydro-2H-pyran-4-yl)-N-(2-methoxy-7-methyl-6,7,8,9-tetrahydro-5H-pyrido[2,3-d]azepin-3-yl)benzenesulfonamide] | 0.238 µM | 0.00177 µM |
| COc1nc2c(cc1NS(=O)(=O)c1ccc([C@H]3C[C@@H](OC)C3)cc1)CCN(C)CC2 [Example 81, 4-(cis-3-methoxycyclobutyl)-N-(2-methoxy-7-methyl-6,7,8,9-tetrahydro-5H-pyrido[2,3-d]azepin-3-yl)benzenesulfonamide] | 0.311 µM | 0.00119 µM |
| COc1nc2c(cc1NS(=O)(=O)c1ccc(OC3CCOC3)cc1)CCN(C)CC2 (centres unmarked) [Example 82, N-(2-methoxy-7-methyl-6,7,8,9-tetrahydro-5H-pyrido[2,3-d]azepin-3-yl)-4-(tetrahydrofuran-3-yloxy)benzenesulfonamide] | 0.342 µM | 0.00437 µM |
| COc1nc2c(cc1NS(=O)(=O)c1ccc([C@H](C)OC)cc1)CCN(C)CC2 [Example 89, 4-[(1S)-1-methoxyethyl]-N-(2-methoxy-7-methyl-6,7,8,9-tetrahydro-5H-pyrido[2,3-d]azepin-3-yl)benzenesulfonamide] | 0.076 µM | 0.00167 µM |
| COc1nc2c(cc1NS(=O)(=O)c1ccc([C@@H](C)OC)cc1)CCN(C)CC2 [Example 90, 4-[(1R)-1-methoxyethyl]-N-(2-methoxy-7-methyl-6,7,8,9-tetrahydro-5H-pyrido[2,3-d]azepin-3-yl)benzenesulfonamide] | 0.207 µM | 0.00193 µM |
| COc1nc2c(cc1NS(=O)(=O)c1ccc(O[C@H]3CCOC3)cc1)CCN(C)CC2 [Example 91, N-(2-methoxy-7-methyl-6,7,8,9-tetrahydro-5H-pyrido[2,3-d]azepin-3-yl)-4-[(3S)-tetrahydrofuran-3-yloxy]benzenesulfonamide] | 0.208 µM | 0.00337 µM |
| COc1nc2c(cc1NS(=O)(=O)c1ccc([C@H]3CC[C@@H](OC)CC3)cc1)CCN(C)CC2 [Example 92, 4-(cis-4-methoxycyclohexyl)-N-(2-methoxy-7-methyl-6,7,8,9-tetrahydro-5H-pyrido[2,3-d]azepin-3-yl)benzenesulfonamide] | 0.6 µM | 0.00553 µM |
| COc1nc2c(cc1NS(=O)(=O)c1ccc(C3(OC)CCCC3)cc1)CCN(C)CC2 [Example 95, 4-(1-methoxycyclopentyl)-N-(2-methoxy-7-methyl-6,7,8,9-tetrahydro-5H-pyrido[2,3-d]azepin-3-yl)benzenesulfonamide] | 0.0453 µM | 0.0006 µM |
| CCN1CCc2cc(NS(=O)(=O)c3ccc([C@]4(F)C[C@H](OC)C4)cc3)c(OC)nc2CC1 [Example 96, N-(7-ethyl-2-methoxy-6,7,8,9-tetrahydro-5H-pyrido[2,3-d]azepin-3-yl)-4-(trans-1-fluoro-3-methoxycyclobutyl)benzenesulfonamide] | 0.317 µM | 0.00279 µM |
| COc1nc2c(cc1NS(=O)(=O)c1ccc(OC3CCOC3)nc1)CCN(C)CC2 (centres unmarked) [Example 97, N-(2-methoxy-7-methyl-6,7,8,9-tetrahydro-5H-pyrido[2,3-d]azepin-3-yl)-6-(tetrahydrofuran-3-yloxy)pyridine-3-sulfonamide] | 0.983 µM | 0.00589 µM |
| COc1nc2c(cc1NS(=O)(=O)c1ccc([C@@H]3CCCO3)cc1)CCN(C)CC2 [Example 98, N-(2-methoxy-7-methyl-6,7,8,9-tetrahydro-5H-pyrido[2,3-d]azepin-3-yl)-4-[(2S)-tetrahydrofuran-2-yl]benzenesulfonamide] | 0.488 µM | 0.00401 µM |
| COc1nc2c(cc1NS(=O)(=O)c1ccc([C@H]3CCCO3)cc1)CCN(C)CC2 [Example 99, N-(2-methoxy-7-methyl-6,7,8,9-tetrahydro-5H-pyrido[2,3-d]azepin-3-yl)-4-[(2R)-tetrahydrofuran-2-yl]benzenesulfonamide] | 0.314 µM | 0.00305 µM |
| COc1nc2c(cc1NS(=O)(=O)c1ccc(C3(OC)CCCC3)nc1)CCN(C)CC2 [Example 100, 6-(1-methoxycyclopentyl)-N-(2-methoxy-7-methyl-6,7,8,9-tetrahydro-5H-pyrido[2,3-d]azepin-3-yl)pyridine-3-sulfonamide] | 0.663 µM | 0.00635 µM |
